The source of these data is US20190367516A1 (Bayer Pharma Aktiengesellschaft, priority 2015, published 2019).

Where two headings read alike, the source gives them in different places.

This test has as its target T1, human M2 receptor (Homo sapiens, UniProt P08172).
T1 sequence (P08172 1-466): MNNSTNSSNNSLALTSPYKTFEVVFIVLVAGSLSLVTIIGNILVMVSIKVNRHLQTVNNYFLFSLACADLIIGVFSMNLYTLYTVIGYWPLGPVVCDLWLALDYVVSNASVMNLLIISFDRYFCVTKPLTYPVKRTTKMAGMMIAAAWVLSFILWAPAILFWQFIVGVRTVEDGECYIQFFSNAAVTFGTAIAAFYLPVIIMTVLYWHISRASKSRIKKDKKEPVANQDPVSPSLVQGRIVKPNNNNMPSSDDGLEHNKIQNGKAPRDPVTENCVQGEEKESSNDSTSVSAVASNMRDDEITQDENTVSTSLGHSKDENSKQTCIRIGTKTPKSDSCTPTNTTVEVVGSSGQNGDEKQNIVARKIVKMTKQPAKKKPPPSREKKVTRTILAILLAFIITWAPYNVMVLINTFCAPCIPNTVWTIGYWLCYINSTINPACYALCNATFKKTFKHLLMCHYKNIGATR
Particulars: for Emax: read-out: Efficiency, boosting of the acetylcholine effect at EC20 acetylcholine concentration.

Setting [1] is: Receptor activity EC50, M2-GIRK1/4 activation test, acetylcholine at EC20, allosteric potency, in some cases mean values from two or more determinations.
[2] abbreviates: Receptor activity EC50, allosteric potency at EC20 acetylcholine, M2-GIRK1/4 reporter cells, in some cases mean of two or more determinations.

Turning to `Cc1cccc(C)c1CNC(=O)c1cn(-c2ccc(F)cc2F)c2nc(N(C)C)ccc2c1=O` [Example 51, 1-(2,4-Difluorophenyl)-7-(dimethylamino)-N-(2,6-dimethylbenzyl)-4-oxo-1,4-dihydro-1,8-naphthyridine-3-carboxamide], the response under setting [1] was half-maximal at 0.1 µM (EC50).
On the same count and under the same terms, the result for `CC[C@H](NC(=O)c1cn(-c2c(F)cccc2Cl)c2nc(N3C[C@@H](O)[C@H](O)C3)ccc2c1=O)C(F)(F)F` [Example 346, 1-(2-Chloro-6-fluorophenyl)-7-[(3R,4R)-3,4-dihydroxypyrrolidin-1-yl]-4-oxo-N-[(2S)-1,1-trifluorobutan-2-yl]-1,4-dihydro-1,8-naphthyridine-3-carboxamide] reads 0.05 µM; that for `CC[C@@H](NC(=O)c1cn(-c2ccc(F)cc2F)c2nc(N3C[C@@H](C(=O)OC)OC3=O)ccc2c1=O)C(F)(F)F` [Example 257, Methyl (5S)-3-[8-(2,4-difluorophenyl)-5-oxo-6-{[(2R)-1,1,1-trifluorobutan-2-yl]carbamoyl}-5,8-dihydro-1,8-naphthyridin-2-yl]-2-oxo-1,3-oxazolidine-5-carboxylate], 0.138 µM.
Under setting [2], `CC[C@H](NC(=O)c1cn(-c2c(F)cc(F)cc2F)c2nc(N3C[C@@H](NC(C)=O)CC3=O)ccc2c1=O)C(F)(F)F` [Example 517, 7-[(4S)-4-Acetamido-2-oxopyrrolidin-1-yl]-4-oxo-N-[(2S)-1,1,1-trifluorobutan-2-yl]-1-(2,4,6-trifluorophenyl)-1,4-dihydro-1,8-naphthyridine-3-carboxamide] gave a concentration for a half-maximal effect (EC50) of 0.085 µM. In addition, the Emax (M2-GIRK1/4 reporter cells) turned out to be 88.5%.
For the molecule `CC(NC(=O)c1cn(-c2ccc(F)cc2F)c2nc(N3C[C@@H](O)CC3=O)ccc2c1=O)C(F)(F)C(F)(F)F` (mixture of isomers) [Example 622, 1-(2,4-Difluorophenyl)-7-[(4S)-4-hydroxy-2-oxopyrrolidin-1-yl]-4-oxo-N-[3,3,4,4,4-pentafluorobutan-2-yl]-1,4-dihydro-1,8-naphthyridine-3-carboxamide], the EC50 under setting [2] turned out to be 0.043 µM. Moreover, the Emax (M2-GIRK1/4 reporter cells) was found to be 93%.
The matching figures for `CC(C)[C@@H](C)NC(=O)c1cn(-c2c(F)cc(F)cc2F)c2nc(N3C[C@@H](O)[C@H](O)C3)ccc2c1=O` [Example 483, 7-[(3R,4R)-3,4-Dihydroxypyrrolidin-1-yl]-N-[(2R)-3-methylbutan-2-yl]-4-oxo-1-(2,4,6-trifluorophenyl)-1,4-dihydro-1,8-naphthyridine-3-carboxamide]: 0.054 µM and 92.5%.
Under setting [1], `CC(NC(=O)c1cn(-c2ccc(F)cc2F)c2nc(N3CCCC3=O)ccc2c1=O)C(F)(F)F` (centres unmarked) [Example 179] gave an EC50 of 0.169 µM.
Same read-out and setting: with `O=C(NC1(C(F)(F)F)CCOCC1)c1cn(-c2ccc(F)cc2F)c2nc(N3C[C@@H](O)CC3=O)ccc2c1=O` [Example 237, 1-(2,4-Difluorophenyl)-7-[(4S)-4-hydroxy-2-oxopyrrolidin-1-yl]-4-oxo-N-[4-(trifluoromethyl)tetrahydro-2H-pyran-4-yl]-1,4-dihydro-1,8-naphthyridine-3-carboxamide] the figure was 0.751 µM.
As for `O=C(NC(C1CCC1)C(F)(F)F)c1cn(-c2c(F)cc(F)cc2F)c2nc(N3C[C@@H](O)CC3=O)ccc2c1=O` (mixture of isomers) [Example 505, N-[1-Cyclobutyl-2,2,2-trifluoroethyl]-7-[(4S)-4-hydroxy-2-oxopyrrolidin-1-yl]-4-oxo-1-(2,4,6-trifluorophenyl)-1,4-dihydro-1,8-naphthyridine-3-carboxamide], the EC50 under setting [2] came out at 0.006 µM. For the setting “M2-GIRK1/4 reporter cells”, the Emax worked out at 100%.
Under setting [1], `CCCC(NC(=O)c1cn(-c2ccc(F)cc2F)c2nc(N3CCC(F)(F)C3)ccc2c1=O)C(F)(F)F` (racemic) [Example 76, rac-1-(2,4-Difluorophenyl)-7-(3,3-difluoropyrrolidin-1-yl)-4-oxo-N-[1,1,1-trifluoropentan-2-yl]-1,4-dihydro-1,8-naphthyridine-3-carboxamide] yielded an EC50 of 0.069 µM.

A word on the EC50: it is the concentration that produces a half-maximal response. A high value points to a less potent agent.
